# Experiment: Human HepG2 cell viability assay in 384 well format
# Assay type: toxicity, cell-based
# Set-up: dose 125 nL, time 70.5 hour; concentration not given beside the values
# Settings: HepG2 cells, read-out: Inhibition
row,SMILES,cytotoxicity at 70.5 h
1,Cc1cnn(CC2CN(c3ncnc4[nH]ccc34)CCO2)c1 (centres undefined),1.56%
2,Cc1ccccc1C1(O)CCN(C(=O)CCc2cn3ccccc3n2)C1 (centres undefined),17.9%
3,CCc1cnc(CN(C(C)=O)C2CCN(CC(=O)N3CCCC3)C2)o1 (centres undefined),-4.28%
4,CCNC(=O)NC(=O)C(C)Nc1ccccc1OCCOC (centres undefined),-11.3%
5,CC(=O)c1ccc(C(=O)NCc2cccnc2N2CCCC(O)C2)s1 (centres undefined),-14.1%
6,CCn1cc(NC(=O)NC2CCCc3c2cnn3CCO)cn1 (centres undefined),-2.96%
7,CCC(O)Cn1nc(CCSC)nc1-c1ccc2c(c1)OCCO2 (centres undefined),15.5%
8,Cc1cc(C)c2nc(CN3CCCC(c4cc[nH]n4)C3)cc(O)c2c1 (centres undefined),-2.87%
9,Cn1ccc2c(-c3cc(N)nc(N4CCOCC4)n3)ccnc21,1.46%
10,O=S(=O)(NCC(c1ccsc1)N1CCCCCC1)c1cccs1 (centres undefined),-3.34%
11,C=C(C)CN1CCC(NC(=O)NCCc2ccc(N(C)C)cc2)CC1,12.7%
12,COc1ccc(C(C)NCc2c[nH]nc2C)cc1Br (centres undefined),-6.07%
13,Cc1noc(C(C)Nc2ccc(N3CCOCC3)cc2C)n1 (centres undefined),-4.53%
14,O=C(c1ccc[nH]1)N1CCc2nnc(Cn3cccc3)n2CC1,-7.68%
15,CCc1nnc(CN(C)C[C@@H]2CCCN3CCCC[C@H]23)o1,-3.62%
16,O=C1C(Sc2nnnn2C2CC2)CCN1c1ccccc1Cl (centres undefined),-6.47%
17,Cc1cnn(CC2CCCCN2CC(=O)Nc2c(C)n[nH]c2C)c1 (centres undefined),-5.21%
18,Cc1nc(O)cc(CCNC(=O)c2ccccc2N2CCCC2)n1,27%
19,CN1CCO[C@@H]2CN(C(=O)COc3cccc(Cl)c3)C[C@@H]2C1,4.28%
20,O=C(NCC(F)(F)F)C1=NOC2(CCCNC2)C1 (centres undefined),0.364%
21,CCN1CC(CN(C)Cc2nc(-c3ccc(C)o3)oc2C)CC1=O (centres undefined),-6.14%
22,CCS(=O)(=O)N1CCc2ccc(NC(=O)NCc3ccccc3)cc21,-3.62%
23,O=C(CN1CCCS1(=O)=O)Nc1ccc(OC2CCCC2)cc1,-0.244%

row,SMILES,cytotoxicity at 70.5 h
1,CCN(CCC(F)(F)F)S(=O)(=O)c1cccc(F)c1C#N,-4.04%
2,CC(C)c1cc(C(=O)N[C@@H]2CC[C@@H](Oc3ccccc3)[C@@H]2O)on1,-3.21%
3,N#CC1(C(=O)N2CCN(c3nccs3)CC2)CCCCC1,-10.1%
4,CN1C(=O)CC(c2ccccc2)C12CCN(CC1CC1)CC2 (centres undefined),-11.2%
5,CNc1snc(C)c1C(=O)N1CCC(Nc2ccc(C)nn2)CC1,-3.58%
6,O=C1N(Cc2ccccn2)C[C@H]2CN(C3CCOCC3)CCN12,-3.19%
7,Cc1ccc(CC(=O)N2CCCC(c3nccs3)C2)cn1 (centres undefined),-4.34%
8,CNc1nc(C)c(-c2nc(-c3c(C)ncc4c3CCNC4)no2)s1,-16.8%
9,Cn1c(C(=O)NC2CC2)nc2c1CCN(c1ncccn1)C2,-4.38%
10,Cc1cc(C(=O)N2CCn3cc(CN(C)C)nc3C2)no1,-7.02%
11,Cc1nc(C)n(CC2CCCN2Cc2nc3ccccc3s2)n1 (centres undefined),-5.56%
12,CCC(NC(=O)c1nn(C)cc1C(=O)O)c1ccc(C)cc1C (centres undefined),-6.11%
13,COc1cccc(CN(C)Cc2c(C)noc2C)c1OC,-3.33%
14,COC1CCN(C(=O)NCC(N)=O)CC(=O)N(C)c2ccccc21 (centres undefined),-5.28%
15,O=C1CCNc2ccccc2CN1Cc1ccco1,-6.23%
16,Cc1nc(CN2CCC(N3CCN(C)C3=O)CC2)no1,18%
17,Cc1ccc(C(=O)NCC2(O)CCOCC2)cc1Br,-7.13%
18,CC1CN(CC(=O)Nc2cccnc2)CCN1c1nccs1 (centres undefined),-12.4%
19,CCn1cc(S(=O)(=O)NCC2(N3CCOCC3)CCCCC2)c(C)n1,28.1%
20,CCn1ncc2c1CCCC2NCc1ccc(OC)cc1OC (centres undefined),-4.5%
21,Cc1cccc2sc(NC(=O)CN3CCCC(O)(CO)C3)nc12 (centres undefined),11%
22,Cc1n[nH]c(C)c1C1CCCN1C(=O)CNC(=O)C(C)(C)C (centres undefined),-0.174%
23,CC1(C(=O)N2CCN(C3CCCC3)CC2)CNCCO1 (centres undefined),-7.45%

row,SMILES,cytotoxicity at 70.5 h
1,CC[C@H](C)Cn1nc(C2CCNCC2)n(Cc2ccccc2)c1=O,-2.63%
2,CC(=O)c1ccc(Cl)c(Cl)c1OCC(=O)NC(C)C,-6.15%
3,Cc1cn(Cc2ccccc2)nc1N,2.81%
4,O=C(c1cc(-n2cnnn2)ccc1Cl)N1CCCCCC1,-2.04%
5,CCCS(=O)(=O)N1Cc2c(ncn2Cc2ccccc2)C[C@H]1C(=O)OC,-5.74%
6,c1coc(CN2CC[C@H]3O[C@@H](COCC4CC4)CC[C@H]32)c1,7.95%
7,O=C(Cc1ccccn1)N1CCc2ncnc(NC3CCC3)c2CC1,-9.73%
8,COc1cccc(CN2CCCCCC2c2cccs2)c1O (centres undefined),-6.94%
9,O=C(C[C@H]1[C@H]2CN(C(=O)c3cccnc3)C[C@@H]12)Nc1cccnc1,-1.44%
10,COc1cc(C2CC(=O)Oc3cc(C)[nH]c(=O)c32)ccc1O (centres undefined),-18.3%
11,COc1ccc(C(=O)N(C)Cc2c(C)noc2C)cn1,-4.2%
12,N#Cc1ccccc1NC(=O)C1CN(C(=O)c2ccc3c(c2)OCO3)C1,-7%
13,CC(C)N[C@@H]1CO[C@H](CNC(=O)Nc2ccccc2)[C@H]1O,-2.59%
14,CC(C)NC(=O)N1CCc2ncc(CN3CCOCC3)n2CC1,-1.87%
15,CN1CCCc2cc(-c3cncn3CC(=O)NC(C)(C)C)ccc21,-16.5%
16,CCCn1ncc(C(=O)N2CCN(C3Cc4ccccc4C3)CC2)c1C,-0.105%
17,COc1ccccc1C(=O)Nc1nc2c(s1)CN(S(=O)(=O)C1CC1)CC2,-3.51%
18,COc1ccc(OC)c(C2CCN(C(=O)C3CCN(C(C)C)CC3)C2)c1 (centres undefined),-8.95%
19,CC(C)c1nnc2n1CCN(c1nc3ccccc3o1)C2,-10.1%
20,COc1cc(Cl)c(C)cc1-n1nnc(C(=O)O)c1-c1ccncc1,28.1%
21,O=C(c1cc(-c2ccco2)nc2c(Cl)cccc12)N1CCS(=O)(=O)CC1,-11.9%
22,COc1ccc(CCNC2CCCN(c3ccc(C)nn3)C2)cc1 (centres undefined),-7.85%
23,COc1cccc(CCC2CCCN(C(C)=O)C2)c1 (centres undefined),-1.99%

row,SMILES,cytotoxicity at 70.5 h
1,O=C(NC1=NCCS1)C1CSCN1C(=O)C1CCCC1 (centres undefined),-12.4%
2,COc1cc(N2CCC3(CC2)CN(C)C(=O)CO3)ncn1,16.1%
3,CC(NC(=O)N(C)Cc1ccc2c(c1)OCO2)c1nncn1C (centres undefined),-8.56%
4,Cc1ccc([C@@H]2CN(S(=O)(=O)C(C)C)C[C@H]2N(C)C)cc1,-12.5%
5,COCCOc1ccccc1C(=O)NCCN(C)C(C)C,16.8%
6,Cc1n[nH]c(C)c1CCC(=O)NCC1(O)CCN(c2ccccn2)C1 (centres undefined),-1.98%
7,NCCCn1nc(C(F)(F)F)c2c1CCC2,-7.21%
8,O=C(COCC(F)(F)C(F)F)N1CCC(c2ncc[nH]2)CC1,-5.35%
9,CCOC(=O)c1ccc(N2CCN(Cc3c(C)nn(C)c3Cl)CC2)nc1,12.7%
10,Cn1nc2c(cc1=O)CN(c1ncnc3ccsc13)CC2,3.58%
11,Cc1ccc(CN2CCOCC2c2[nH]ncc2C)cn1 (centres undefined),-7.81%
12,O=C(CNC(=O)c1ccccc1Cl)Nc1nccs1,1.89%
13,CCS(=O)(=O)Nc1ccn(Cc2cccc(F)c2)n1,-11.5%
14,Cc1ccc(C(=O)CN2C(=O)c3ccccc3CS2(=O)=O)c(C)c1,-10.2%
15,CCn1cc(C(=O)NCc2csc(Br)c2)cn1,-11.6%
16,O=C(c1ncccn1)N1C[C@@H]2COC[C@]2(COc2cccnc2)C1,-4.57%
17,Cc1nonc1CN(C)Cc1cnn(-c2ccc(F)cc2)c1,0.663%
18,CCC(CNC(=O)c1nc(=O)[nH][nH]1)Oc1ccccc1C(F)(F)F (centres undefined),1.22%
19,CCOCCN1CCN(Cc2nnc(C3CC3)o2)CC1C (centres undefined),-3.62%
20,COc1ccccc1CNC(=O)CN(C)C(C)c1ccncn1 (centres undefined),-18.5%
21,Cn1ccc2cc(CC3COCCN(C(=O)c4cccnc4)C3)ccc21 (centres undefined),11.9%
22,Cc1nc(C2CCCN2CCC(=O)N2CCc3ccccc32)no1 (centres undefined),4.14%
23,COc1ccccc1-c1noc(CCC(=O)NC(C)Cn2cccn2)n1 (centres undefined),-3.38%

row,SMILES,cytotoxicity at 70.5 h
1,CS(=O)(=O)N1CCc2c(nnn2CC2CC2)C1COCC1CC1 (centres undefined),-1.97%
2,O=C(C1CCC1)N1CCC(C(=O)N2CCC(c3ccc(F)cc3)C2)CC1 (centres undefined),3.33%
3,O=C1OCCN1C1CCN(Cc2cc3n(n2)CCCNC3)CC1,17.1%
4,N#Cc1ccccc1CN1CCc2sccc2C1,-8.96%
5,CNc1nc2c(s1)C(=O)CN(C(=O)NCc1ccccc1)C2,-9.93%
6,Cc1cc(CS(=O)(=O)NCC2CCCCC2)on1,0.508%
7,CCn1cc(Cl)c(C(=O)Nc2ccc3c(c2)C(C)(C)C(=O)N3C)n1,-16.6%
8,N#Cc1ccc(C(=O)N2CC[C@H]3[C@H]2CCN3CC2CC2)cc1,-10.6%
9,OC(CN1CC(n2cccn2)C1)c1ccc2c(c1)OCCO2 (centres undefined),-3.2%
10,Cn1ccnc1CN1CCC(c2nnc(Cn3cccn3)n2C)CC1,24.7%
11,CC1(C)CN(C(=O)c2cc(F)cc3[nH]cnc23)CCS1,-11%
12,CN1C[C@@H](NC(=O)C(C)(C)C)C[C@H]1C(=O)NCc1ncc[nH]1,-8.54%
13,COc1cc(OC)cc(-c2noc(CN)n2)c1,45.5%
14,O=c1cc(Cn2ccnc2)nc2n1CCCN(Cc1ccco1)C2,-5.53%
15,Cc1noc(C)c1CN1CCN(c2ccnc(-c3ccccc3)n2)CC1,26.5%
16,Cc1ccc(NC(=O)c2cnc(N3CCN(C)CC3)nc2C)cc1C,-4.49%
17,CNC(=O)[C@H]1C[C@@H]2CN(Cc3ccc(C)cc3)C[C@H]1O2,-6.44%
18,O=c1c(CN2CC3CCCN3C[C@@H]2CCO)coc2ccc(Cl)cc12 (some centres undefined),-6.6%
19,CC(Cn1cccn1)NC(=O)NCc1ccc(OC2CCCC2)nc1 (centres undefined),19.5%
20,Cc1nc(C)c(C)c(N2CCC(NCCOc3ccccc3)CC2)n1,17.8%
21,CCOCc1cnc2n1CCN(C(=O)c1cccc3c1OCCO3)C2C (centres undefined),-5.93%
22,Cc1cc(C)c2ncc(C#N)c(NC3CCN(CC(N)=O)CC3)c2c1,1.44%

# From ChEMBL document CHEMBL3507680, “University of Dundee, Gates Library screen for HepG2 cell viability”
